Reference: ChEMBL document CHEMBL3739323, “Design, synthesis, and biological evaluation of novel quinazolinyl-diaryl urea derivatives as potential anticancer agents” (Eur J Med Chem, 2016)
pIC50: −log10 of the molar value.

Key:
A549 [1] = experiment: Induction of apoptosis in human A549 cells assessed as necrotic cells at 20 uM after 48 hrs by Annexin-V/Propidium iodide dual staining based flow cytometric analysis (reference value: 2.57 +/- […]%); assay type: functional
HepG2 = experiment: Antiproliferative activity against human HepG2 cells by MTT assay; assay type: functional, cell-based
A549 [2] = experiment: Induction of apoptosis in human A549 cells assessed as late apoptotic cells at 5 uM after 6 hrs by Annexin-V-FITC/Propidium iodide staining based flow cytometric analysis (reference value: 0.41 +/- 0.19%); assay type: functional
A549 [3] = experiment: Induction of apoptosis in human A549 cells assessed as viable cells at 20 uM after 48 hrs by Annexin-V/Propidium iodide dual staining based flow cytometric analysis (reference value: 92.46 +/- 4.23%); assay type: functional; details: A549, 48 h, read-out: Activity
A549 [4] = experiment: Induction of apoptosis in human A549 cells assessed as upregulation of caspase-3 expression after 48 hrs by Western blot analysis; assay type: functional, cell-based
A549 [5] = experiment: Induction of apoptosis in human A549 cells assessed as necrotic cells at 10 uM after 6 hrs by Annexin-V-FITC/Propidium iodide staining based flow cytometric analysis (reference value: 0.28 +/- 0.09%); assay type: functional
A549 [6] = experiment: Induction of apoptosis in human A549 cells assessed as late apoptotic cells at 5 uM after 48 hrs by Annexin-V/Propidium iodide dual staining based flow cytometric analysis (reference value: 1.44 +/- 0.43%); assay type: functional
[7] = molecular target: RAF proto-oncogene serine/threonine-protein kinase (Homo sapiens) (UniProt P04049); experiment: Inhibition of C-Raf in human A549 cells after 48 hrs by Western blot analysis; assay type: cell-based
Sequence of RAF proto-oncogene serine/threonine-protein kinase (Homo sapiens) (P04049 whole entry): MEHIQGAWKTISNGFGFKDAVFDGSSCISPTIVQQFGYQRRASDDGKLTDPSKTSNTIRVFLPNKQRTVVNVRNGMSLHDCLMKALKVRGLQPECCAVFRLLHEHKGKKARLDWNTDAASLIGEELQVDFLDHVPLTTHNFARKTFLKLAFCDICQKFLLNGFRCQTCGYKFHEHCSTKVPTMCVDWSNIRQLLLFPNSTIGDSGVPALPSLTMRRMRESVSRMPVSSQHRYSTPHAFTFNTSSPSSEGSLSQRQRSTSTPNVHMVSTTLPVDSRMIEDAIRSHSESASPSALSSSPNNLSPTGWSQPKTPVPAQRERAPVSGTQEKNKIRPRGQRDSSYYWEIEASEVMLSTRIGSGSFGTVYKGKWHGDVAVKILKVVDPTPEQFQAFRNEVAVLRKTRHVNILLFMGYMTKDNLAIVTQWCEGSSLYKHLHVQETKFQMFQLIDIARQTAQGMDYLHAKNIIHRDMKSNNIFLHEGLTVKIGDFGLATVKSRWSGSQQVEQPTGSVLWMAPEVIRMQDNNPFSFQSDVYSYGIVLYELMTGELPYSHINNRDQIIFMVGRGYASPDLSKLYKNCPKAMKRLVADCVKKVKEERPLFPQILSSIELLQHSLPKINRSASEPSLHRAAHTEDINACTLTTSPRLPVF

A549 [8] = experiment: Disruption of mitochondrial membrane potential in human A549 cells assessed as ratio of green to red fluorescence intensity at 20 uM after 12 hrs by JC-1 staining based flow cytometric analysis; assay type: functional
A549 [9] = experiment: Induction of apoptosis in human A549 cells assessed as early apoptotic cells at 10 uM after 6 hrs by Annexin-V-FITC/Propidium iodide staining based flow cytometric analysis (reference value: 3.83 +/- 0.49%); assay type: functional
A549 [10] = experiment: Induction of cell cycle arrest in human A549 cells assessed as downregulation of p-Rb(Ser780) expression after 48 hrs by Western blot analysis; assay type: functional, cell-based
A549 [11] = experiment: Induction of apoptosis in human A549 cells assessed as upregulation of Bax expression after 48 hrs by Western blot analysis; assay type: functional, cell-based
[12] = molecular target: RAF proto-oncogene serine/threonine-protein kinase (Homo sapiens) (UniProt P04049); experiment: Inhibition of c-Raf in human A549 cells assessed as downregulation of ERK1/2 expression after 48 hrs by Western blot analysis; assay type: cell-based
A549 [13] = experiment: Induction of apoptosis in human A549 cells assessed as increase in ROS production at 20 uM after 12 hrs by DCF staining based luminescence spectrometric analysis relative to control; assay type: functional
[14] = Cytotoxicity against human BEAS2B cells by MTT assay; assay type: cell-based; details: BEAS-2B

Molecule `COc1cc2ncnc(NCc3cccc(NC(=O)Nc4ccc(C(C)(C)C)cc4)c3)c2cc1OC` has an Activity (A549 [1]) of 42.2%, a pIC50 (HepG2) of 5.16 and an Activity (A549 [2]) of 5.97%. The viability at 20 µM (A549 [3]) was 51.6%, the Activity (A549 [4]) was “Dose-dependent effect” and the Activity (A549 [5]) was 0.56%. For the same molecule, the Activity (A549 [6]) was 7.84%, the inhibition [7] was “Dose-dependent effect” and the Ratio (A549 [8]) was 75. For the same molecule, the Activity (A549 [9]) was 12.2%, the Activity (A549 [10]) was “Dose-dependent effect” and the Activity (A549 [11]) was “Dose-dependent effect”. The inhibition [12] was “Dose-dependent effect”, the Activity (A549 [13]) was 80.9% and the pIC50 [14] was 4.58.
